The subject of this assay is CD8F1 mice, subcutaneous mammary adenocarcinoma, T/C%. Description: NCI In Vivo Anticancer Drug Screen. Data for tumor model Mammary Adenocarcinoma CD8F1 (subcutaneous) in CD8F1. Particulars: higher = larger tumour. Put shortly: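 Compound-treated versus vehicle-treated mice with transplantable tumors; survival or tumor size compared as T/C.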
Where [1] appears, read: endpoint: median tumor weight (est.), dose: 6.25 mg/kg/injection, schedule: Q07DX005 (ip), vehicle: saline with Tween-80.
Where [2] appears, read: endpoint: median tumor weight (est.), dose: 12.5 mg/kg/injection, schedule: Q07DX005 (ip), vehicle: saline with Tween-80.
Where [3] appears, read: endpoint: median tumor weight change, dose: 10.0 mg/kg/injection, schedule: Q01DX001 (ip), vehicle: saline.
The mark [4] stands for this setting: endpoint: median tumor weight change, dose: 20.0 mg/kg/injection, schedule: Q01DX001 (ip), vehicle: saline.
The mark [5] stands for this setting: endpoint: median tumor weight (est.), dose: 6.25 mg/kg/injection, schedule: Q07DX005 (ip), vehicle: Klucel (hydroxypropylcellulose) (HPC).
The mark [6] stands for this setting: endpoint: median tumor weight (est.), dose: 12.5 mg/kg/injection, schedule: Q07DX005 (ip), vehicle: Klucel (hydroxypropylcellulose) (HPC).
The mark [7] stands for this setting: endpoint: median tumor weight (est.), dose: 25.0 mg/kg/injection, schedule: Q07DX005 (ip), vehicle: Klucel (hydroxypropylcellulose) (HPC).

Several values for one entry are separate records, joined by “and”; a condition that tells them apart may be missing. Identical values can stand only once. Inconclusive results are not listed.

For `CCOC(=O)c1ccc(NN=NCCF)cc1`, the T/C was 80 % of control (endpoint: median tumor weight change, dose: 15.6 mg/kg/injection, schedule: Q01DX001 (ip), vehicle: distilled water + Tween-80); 65 % of control (endpoint: median tumor weight change, dose: 31.25 mg/kg/injection, schedule: Q01DX001 (ip), vehicle: distilled water + Tween-80); 114 % of control (endpoint: median tumor weight change, dose: 62.5 mg/kg/injection, schedule: Q01DX001 (ip), vehicle: distilled water + Tween-80); 56 % of control (endpoint: median tumor weight change, dose: 125.0 mg/kg/injection, schedule: Q01DX001 (ip), vehicle: distilled water + Tween-80).

On to `Nc1nnc[se]1`, for which the T/C is 80 % of control (endpoint: median tumor weight change, dose: 15.6 mg/kg/injection, schedule: Q01DX001 (ip), vehicle: saline with Tween-80); 123 % of control (endpoint: median tumor weight change, dose: 31.25 mg/kg/injection, schedule: Q01DX001 (ip), vehicle: saline with Tween-80); 84 % of control (endpoint: median tumor weight change, dose: 62.5 mg/kg/injection, schedule: Q01DX001 (ip), vehicle: saline with Tween-80); 94 % of control (endpoint: median tumor weight change, dose: 125.0 mg/kg/injection, schedule: Q01DX001 (ip), vehicle: saline with Tween-80); 50 % of control (endpoint: median tumor weight change, dose: 250.0 mg/kg/injection, schedule: Q01DX001 (ip), vehicle: saline with Tween-80); 38 % of control (endpoint: median tumor weight change, dose: 500.0 mg/kg/injection, schedule: Q01DX001 (ip), vehicle: saline with Tween-80).

For the molecule `O=P1(N(CCCl)CCCl)NCCCO1` (centres undefined), the T/C (endpoint: mean tumor weight, dose: 20.0 mg/kg/injection, schedule: Q01DX018 (ip), vehicle: saline) is 8 % of control; the T/C (endpoint: mean tumor weight, dose: 37.5 mg/kg/injection, schedule: Q07DX004 (ip), vehicle: saline) is 3 % of control; the T/C (endpoint: mean tumor weight, dose: 40.0 mg/kg/injection, schedule: Q01DX009 (ip), vehicle: saline) is 4 % of control and 9 % of control; the T/C (endpoint: mean tumor weight, dose: 50.0 mg/kg/injection, schedule: Q07DX004 (ip), vehicle: saline) is 3 % of control; the T/C (endpoint: median tumor weight (est.), dose: 10.0 mg/kg/injection, schedule: Q01DX005 (ip), vehicle: saline) was 55 % of control; the T/C (endpoint: median tumor weight (est.), dose: 20.0 mg/kg/injection, schedule: Q01DX005 (ip), vehicle: saline) was 1 % of control. Moreover, the T/C by setting is: (endpoint: median tumor weight (est.), dose: 25.0 mg/kg/injection, schedule: Q01DX005 (ip), vehicle: saline) 80 % of control; (endpoint: median tumor weight (est.), dose: 37.5 mg/kg/injection, schedule: Q01DX005 (ip), vehicle: saline) 17 % of control; (endpoint: median tumor weight (est.), dose: 37.5 mg/kg/injection, schedule: Q04DX005 (ip), vehicle: saline) 60 % of control; (endpoint: median tumor weight (est.), dose: 40.0 mg/kg/injection, schedule: Q01DX005 (ip), vehicle: saline) 8 % of control; (endpoint: median tumor weight (est.), dose: 50.0 mg/kg/injection, schedule: Q01DX005 (ip), vehicle: saline) 15 % of control; (endpoint: median tumor weight (est.), dose: 50.0 mg/kg/injection, schedule: Q04DX005 (ip), vehicle: saline) 11 % of control. Also, the T/C reads like this: (endpoint: median tumor weight (est.), dose: 50.0 mg/kg/injection, schedule: Q07DX005 (ip), vehicle: saline) 27 % of control; (endpoint: median tumor weight (est.), dose: 67.0 mg/kg/injection, schedule: Q07DX005 (ip), vehicle: saline) 6 % of control; (endpoint: median tumor weight (est.), dose: 75.0 mg/kg/injection, schedule: Q01DX005 (ip), vehicle: saline) 1 % of control; (endpoint: median tumor weight (est.), dose: 75.0 mg/kg/injection, schedule: Q04DX005 (ip), vehicle: saline) 1 % of control; (endpoint: median tumor weight (est.), dose: 75.0 mg/kg/injection, schedule: Q07DX005 (ip), vehicle: saline) 5 % of control; (endpoint: median tumor weight (est.), dose: 80.0 mg/kg/injection, schedule: Q01DX005 (ip), vehicle: saline) 2 % of control. For the same molecule, the T/C was 1 % of control (endpoint: median tumor weight (est.), dose: 100.0 mg/kg/injection, schedule: Q07DX005 (ip), vehicle: saline); 32 % of control (endpoint: median tumor weight (est.), dose: 111.0 mg/kg/injection, schedule: Q01DX001 (ip), vehicle: saline); 34 % of control (endpoint: median tumor weight (est.), dose: 167.0 mg/kg/injection, schedule: Q01DX001 (ip), vehicle: saline); 9 % of control (endpoint: median tumor weight (est.), dose: 250.0 mg/kg/injection, schedule: Q01DX001 (ip), vehicle: saline); 91 % of control (endpoint: median tumor weight change, dose: 25.0 mg/kg/injection, schedule: Q01DX001 (ip), vehicle: saline); 42 % of control and 62 % of control (endpoint: median tumor weight change, dose: 50.0 mg/kg/injection, schedule: Q01DX001 (ip), vehicle: saline). The T/C is 5 % of control and 29 % of control (endpoint: median tumor weight change, dose: 100.0 mg/kg/injection, schedule: Q01DX001 (ip), vehicle: saline); -56 % of control (endpoint: median tumor weight change, dose: 400.0 mg/kg/injection, schedule: Q01DX001 (ip), vehicle: saline).

For `CCOC(=O)NC1=C(N2CC2)C(=O)C(NC(=O)OCC)=C(N2CC2)C1=O`, the T/C (endpoint: median tumor weight (est.), dose: 0.78 mg/kg/injection, schedule: Q07DX005 (ip), vehicle: saline) is 36 % of control; the T/C (endpoint: median tumor weight (est.), dose: 1.56 mg/kg/injection, schedule: Q07DX005 (ip), vehicle: saline with Tween-80) is 53 % of control; the T/C (endpoint: median tumor weight (est.), dose: 1.56 mg/kg/injection, schedule: Q07DX005 (ip), vehicle: saline) was 36 % of control; the T/C (endpoint: median tumor weight (est.), dose: 3.12 mg/kg/injection, schedule: Q07DX005 (ip), vehicle: saline with Tween-80) is 59 % of control; the T/C (endpoint: median tumor weight (est.), dose: 3.12 mg/kg/injection, schedule: Q07DX005 (ip), vehicle: saline) was 56 % of control; the T/C under setting [1] is 25 % of control. In addition, the T/C runs as follows: (endpoint: median tumor weight (est.), dose: 6.25 mg/kg/injection, schedule: Q07DX005 (ip), vehicle: saline) 25 % of control; under setting [2], 11 % of control; (endpoint: median tumor weight (est.), dose: 12.5 mg/kg/injection, schedule: Q07DX005 (ip), vehicle: saline) 23 % of control; (endpoint: median tumor weight change, dose: 2.5 mg/kg/injection, schedule: Q01DX001 (ip), vehicle: saline) 33 % of control; (endpoint: median tumor weight change, dose: 2.5 mg/kg/injection, schedule: Q01DX001 (ip), vehicle: suspension in saline) 81 % of control; (endpoint: median tumor weight change, dose: 5.0 mg/kg/injection, schedule: Q01DX001 (ip), vehicle: saline) 43 % of control. Also, the T/C was 80 % of control (endpoint: median tumor weight change, dose: 5.0 mg/kg/injection, schedule: Q01DX001 (ip), vehicle: suspension in saline); 16 % of control and 31 % of control (endpoint: median tumor weight change, dose: 10.0 mg/kg/injection, schedule: Q01DX001 (ip), vehicle: saline with Tween-80); 32 % of control under setting [3]; 52 % of control (endpoint: median tumor weight change, dose: 10.0 mg/kg/injection, schedule: Q01DX001 (ip), vehicle: suspension in saline); -14 % of control (endpoint: median tumor weight change, dose: 20.0 mg/kg/injection, schedule: Q01DX001 (ip), vehicle: saline with Tween-80); 11 % of control under setting [4]. In addition, for the setting “endpoint: median tumor weight change, dose: 20.0 mg/kg/injection, schedule: Q01DX001 (ip), vehicle: suspension in saline”, the T/C was 19 % of control.

`CS(=O)(=O)OCCN(CCOS(C)(=O)=O)c1ccc(C=O)cc1`: the T/C is 62 % of control under setting [1]; 62 % of control and 83 % of control under setting [2]; 35 % of control (endpoint: median tumor weight (est.), dose: 25.0 mg/kg/injection, schedule: Q07DX005 (ip), vehicle: saline with Tween-80); 85 % of control (endpoint: median tumor weight (est.), dose: 200.0 mg/kg/injection, schedule: Q07DX005 (ip), vehicle: saline with Tween-80).

On to `C1CCC2[N-]CC3CCCCC3[N-]CC3CCCCC3[N-]CC3CCCCC3[N-]CC2C1.[Cu]` (centres undefined), for which the T/C is 71 % of control under setting [5], 99 % of control under setting [6] and 80 % of control under setting [7].

In the case of `CCCCCCC1C=Cc2ccccc21` (centres undefined), the T/C under setting [5] is 65 % of control; the T/C under setting [6] was 61 % of control; the T/C under setting [7] is 84 % of control; the T/C (endpoint: median tumor weight (est.), dose: 50.0 mg/kg/injection, schedule: Q07DX005 (ip), vehicle: Klucel (hydroxypropylcellulose) (HPC)) was 86 % of control; the T/C (endpoint: median tumor weight (est.), dose: 100.0 mg/kg/injection, schedule: Q07DX005 (ip), vehicle: Klucel (hydroxypropylcellulose) (HPC)) is 66 % of control.

Regarding `C=CS(C=C)=NS(=O)(=O)c1ccc(C)cc1`, the T/C is 94 % of control (endpoint: median tumor weight (est.), dose: 3.12 mg/kg/injection, schedule: Q07DX005 (ip), vehicle: Klucel (hydroxypropylcellulose) (HPC)); 101 % of control under setting [5]; 89 % of control under setting [6].

As for `ClCCCN1CCN(CCCl)CC1`, the T/C is 92 % of control and 97 % of control under setting [3]; 88 % of control (endpoint: median tumor weight change, dose: 14.4 mg/kg/injection, schedule: Q01DX001 (ip), vehicle: saline); 27 % of control and 52 % of control under setting [4]; 15 % of control (endpoint: median tumor weight change, dose: 24.0 mg/kg/injection, schedule: Q01DX001 (ip), vehicle: saline).
